Results taken from US10683272B2 (THE JOHNS HOPKINS UNIVERSITY, priority 2014, dated 2020).

Target: PSMA (Homo sapiens, UniProt Q04609)
Assay: PSMA inhibitory activities, fluorescence-based assay (Example 3)
Type: biochemical
Protocol: PSMA inhibitory activities were determined using a fluorescence-based assay (Banerjee, Pullambhatla, Byun, et al., 2011). Enzyme inhibitory constants (Ki values) were generated using the Cheng-Prusoff conversion (Cheng and Prusoff, 1973). Sub-lines of the androgen independent PC-3 human prostate cancer xenograft were used (Banerjee, Pullambhatla, Byun, et al., 2011). Those sub-lines have been modified to express high (PC-3 PIP) or naturally produce low (PC-3 flu) levels of PSMA (Dr. Warren Heston, Cleveland Clinic, Cleveland, Ohio).

Sequence of PSMA (Q04609 whole entry): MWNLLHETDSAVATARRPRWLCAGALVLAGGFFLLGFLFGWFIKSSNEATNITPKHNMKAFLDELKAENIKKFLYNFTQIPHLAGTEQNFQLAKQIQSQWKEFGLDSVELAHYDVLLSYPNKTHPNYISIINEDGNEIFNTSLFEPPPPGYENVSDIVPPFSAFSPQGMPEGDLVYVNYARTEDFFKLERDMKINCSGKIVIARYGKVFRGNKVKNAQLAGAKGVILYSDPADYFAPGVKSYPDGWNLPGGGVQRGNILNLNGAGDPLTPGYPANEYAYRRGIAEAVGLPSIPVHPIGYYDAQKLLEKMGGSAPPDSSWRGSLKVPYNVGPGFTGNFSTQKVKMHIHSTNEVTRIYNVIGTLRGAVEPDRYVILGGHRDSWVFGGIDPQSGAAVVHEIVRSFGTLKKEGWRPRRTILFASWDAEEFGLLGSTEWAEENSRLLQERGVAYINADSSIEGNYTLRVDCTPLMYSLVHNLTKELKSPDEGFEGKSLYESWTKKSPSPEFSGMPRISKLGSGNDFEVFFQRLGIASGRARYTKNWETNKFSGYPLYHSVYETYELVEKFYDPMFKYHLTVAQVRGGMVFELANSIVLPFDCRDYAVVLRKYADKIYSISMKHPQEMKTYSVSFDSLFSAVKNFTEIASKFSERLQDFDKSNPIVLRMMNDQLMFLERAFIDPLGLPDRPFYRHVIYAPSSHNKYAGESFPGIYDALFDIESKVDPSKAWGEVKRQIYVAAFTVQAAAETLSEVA

Row | SMILES | Ki [nM]
1 | O=C(O)CC[C@H](NC(=O)N[C@@H](CCCCNC(=O)CCCCCCC(=O)NCCCCNC(=S)Nc1ccc(CC2CN(CC(=O)O)CCN(CC(=O)O)CCN(CC(=O)O)CCN2CC(=O)O)cc1)C(=O)O)C(=O)O (stereo partly drawn) [Compound 6, (21S,25S)-8,15,23-trioxo-1-((4-((1,4,7,10-tetrakis(carboxymethyl)-1,4,7,10-tetraazacyclododecan-2-yl)methyl)phenyl)amino)-1-thioxo-2,7,16,22,24-pentaazaheptacosane-21,25,27-tricarboxylic acid] | 1.8
2 | O=C(O)CC[C@H](NC(=O)N[C@@H](CCCCNC(=O)CCCCCCC(=O)NCCCC[C@H](NC(=O)C(Cc1ccccc1)NC(=O)C(Cc1ccccc1)NC(=O)C(Cc1ccccc1)NC(=O)CN1CCN(CC(=O)O)CCN(CC(=O)O)CCN(CC(=O)O)CC1)C(=O)O)C(=O)O)C(=O)O (stereo partly shown) [Compound 5] | 3.12
3 | O=C([O-])CN1CCN(CC(=O)O)CCN(CC(=O)[O-])CC(Cc2ccc(NC(=S)NCCCCNC(=O)CCCCCCC(=O)NCCCC[C@H](NC(=O)N[C@@H](CCC(=O)O)C(=O)O)C(=O)O)cc2)N(CC(=O)[O-])CC1.[Y+3] (stereo partly shown) [^89Y-6] | 2.99
4 | O=C([O-])CN1CCN(CC(=O)[O-])CCN(CC(=O)NC(Cc2ccccc2)C(=O)NC(Cc2ccccc2)C(=O)N[C@@H](CCCCNC(=O)CCCCCCC(=O)NCCCC[C@H](NC(=O)N[C@@H](CCC(=O)O)C(=O)O)C(=O)O)C(=O)O)CCN(CC(=O)[O-])CC1.[Y+3] (stereo partly shown) [^89Y-4] | 0.36
